This note sets out measurements from ChEMBL document CHEMBL1862790, “Optimisation of fenarimol series for the treatment of Chagas disease”.

Data set [1] has as its system Trypanosoma cruzi. The experiment in a line: microbe, parasite or virus in culture. To be noted: Trypanosoma cruzi, Tulahuen LacZ, Clone C4. Type of data set: functional, organism-based, Tulahuen LacZ, Clone C4.
Data set [2] in a line: DNDI: Cytotoxicity against L-6 rat myoblasts from skeletal muscle cells. To be noted: L6 rat skeletal muscle myoblast cells, IC50.
Data set [3] has as its system Trypanosoma cruzi. Briefly: microbe, parasite or virus in culture. Type of data set: functional, Tulahuen LacZ, Clone C4.
The mark [4] stands for this setting: Trypanosoma cruzi, Tulahuen LacZ, Clone C4.

For orientation: pIC50 means the negative decadic logarithm of the IC50, by convention in mol/L. A low value points to a high IC50. The IC90 is the concentration at which the effect reaches the 90% level. Lower therefore signals an effect from little substance.

pIC50: −log10 of the molar value.

As for `CC(C)(C)C(=O)N1CCC(NC(c2ccc(C(F)(F)F)cc2)c2cccnc2)CC1` (configuration not stated), the figures for the pIC50 (with Trypanosoma cruzi [1]; in data set [2]) were 7.62 and less than 4.00, respectively. The compound also returned an IC90 in the data set on Trypanosoma cruzi [3] (setting [4]) of 266 nM.

Take `O=C(NC1CCN(C(c2ccc(C(F)(F)F)cc2)c2cccnc2)CC1)c1ccccc1` (configuration not stated): the values for the pIC50 (in the data set with Trypanosoma cruzi [1]; in data set [2]) were 8.07 and 4.20, respectively. Besides, in the data set on Trypanosoma cruzi [3] (setting [4]), the IC90 worked out at 57.5 nM.

On to `CC(C)(C)NC(=O)N1CCC(NC(c2ccc(C#N)cc2)c2cccnc2)CC1` (configuration not stated), for which the pIC50 in the data set with Trypanosoma cruzi [1] was 6.23; in data set [2], less than 4.00. In the data set with Trypanosoma cruzi [3] (setting [4]), this compound came in with an IC90 of 996 nM.

In the case of `Cc1cc(C(=O)N2CCN(C(c3cccnc3)c3ccc(Cl)cc3F)CC2)no1` (configuration not stated), the negative logarithm of the IC50 (pIC50) is 7.18 in the data set with Trypanosoma cruzi [1] and 4.16 in data set [2]. The same compound yielded a 90% effect concentration (IC90) with Trypanosoma cruzi [3] (setting [4]) of 278 nM.

Consider `O=C(c1cscn1)N1CCC(NC(c2ccc(C(F)(F)F)cc2)c2cccnc2)CC1` (configuration not stated), for which the negative logarithm of the IC50 (pIC50) with Trypanosoma cruzi [1] was 6.66; in data set [2] it was less than 4.00. Besides, the IC90 with Trypanosoma cruzi [3] (setting [4]) came to 833 nM.

With `O=C(C1CC1)N1CCN(C(c2ccc(C(F)(F)F)cc2)c2cccnc2)CC1` (configuration not stated), the negative-log IC50 (pIC50) in the data set on Trypanosoma cruzi [1] is 7.30; in data set [2] it was less than 4.00. Also, the IC90 in the data set on Trypanosoma cruzi [3] (setting [4]) is 183 nM.

Consider `O=C(c1cscn1)N1CCC(NC(c2cccnc2)c2ccc(Cl)cc2F)CC1` (configuration not stated), for which the values for the pIC50 (in the data set on Trypanosoma cruzi [1]; in data set [2]) were 6.62 and less than 4.00, respectively. The same compound returned an IC90 with Trypanosoma cruzi [3] (setting [4]) of 832 nM.

On to `O=C1NCCN1C1CCN(C(c2ccc(Cl)cc2)c2cccnc2)CC1` (configuration not stated), for which the figures for the pIC50 (in the data set with Trypanosoma cruzi [1]; in data set [2]) were 7.40 and 4.17, respectively. In addition, the concentration for an effect of 90% (IC90) in the data set with Trypanosoma cruzi [3] (setting [4]) turned out to be 173 nM.

`O=C(NC1CC1)N1CCN(C(c2ccc(C(F)(F)F)cc2)c2cncnc2)CC1` (configuration not stated): the values for the pIC50 (in the data set on Trypanosoma cruzi [1]; in data set [2]) were less than 6.00 and less than 4.00, respectively. In the data set on Trypanosoma cruzi [3] (setting [4]), this compound yielded a concentration for an effect of 90% (IC90) of more than 1000 nM.

On to `FC(F)(F)c1ccc(C(NC2CCN(c3ncccn3)CC2)c2cccnc2)cc1` (configuration not stated), for which the negative logarithm of the IC50 (pIC50) in the data set on Trypanosoma cruzi [1] is 7.98; in data set [2], 4.26. This compound displayed an IC90 with Trypanosoma cruzi [3] (setting [4]) of 92.5 nM.

`CC(C)(C)C(=O)N1CCN(C(c2cncnc2)c2ccc(Cl)cc2F)CC1` (configuration not stated): the pIC50 in the data set with Trypanosoma cruzi [1] is 7.09; in data set [2], less than 4.00. The compound also showed an IC90 with Trypanosoma cruzi [3] (setting [4]) of 302 nM.

For `Cc1ncsc1C(=O)NC1CCN(C(c2cncnc2)c2ccc(Cl)cc2F)CC1` (configuration not stated), the pIC50 in the data set on Trypanosoma cruzi [1] is 7.11; in data set [2], less than 4.00. Further, in the data set on Trypanosoma cruzi [3] (setting [4]), the IC90 is 436 nM.

As for `O=C(C1CC1)N1CCC(NC(c2cccnc2)c2ccc(Cl)cc2F)CC1` (configuration not stated), the negative logarithm of the IC50 (pIC50) with Trypanosoma cruzi [1] is 6.90; in data set [2] it was less than 4.00. This compound also showed an IC90 in the data set with Trypanosoma cruzi [3] (setting [4]) of 584 nM.

`N#Cc1ccc(C(NC2CCN(C(=O)c3ccccc3)CC2)c2cccnc2)cc1` (configuration not stated): the figures for the pIC50 (with Trypanosoma cruzi [1]; in data set [2]) were 6.36 and less than 4.00, respectively. In the data set with Trypanosoma cruzi [3] (setting [4]), this compound had an IC90 of 948 nM.

With `N#Cc1ccc(C(c2cccnc2)N2CCC(NC(=O)c3cccc(F)c3)CC2)cc1` (configuration not stated), the results for the negative-log IC50 (pIC50) (with Trypanosoma cruzi [1]; in data set [2]) were 7.41 and less than 4.00, respectively. Further, the 90% effect level in the data set with Trypanosoma cruzi [3] (setting [4]) (IC90) was put at 368 nM.

Turning to `FC(F)(F)c1ccc(C(NC2CCN(c3nccs3)CC2)c2cccnc2)cc1` (configuration not stated), the values for the negative-log IC50 (pIC50) (with Trypanosoma cruzi [1]; in data set [2]) were 8.26 and 4.25, respectively. For the same compound, it took 420 nM to reach the 90% level with Trypanosoma cruzi [3] (IC90).

For `NC(=O)c1cccc(C(O)(c2cccnc2)c2ccc(Cl)cc2F)c1` (configuration not stated), the figures for the pIC50 (with Trypanosoma cruzi [1]; in data set [2]) were 7.61 and less than 4.00, respectively. The compound also returned an IC90 with Trypanosoma cruzi [3] (setting [4]) of 356 nM.

For `N#Cc1ccc(C(c2cccnc2)N2CCN(C(=O)C3CC3)CC2)cc1` (configuration not stated), the pIC50 with Trypanosoma cruzi [1] is 6.55; in data set [2], less than 4.00. This compound also gave an IC90 in the data set on Trypanosoma cruzi [3] (setting [4]) of 556 nM.

Turning to `CS(=O)(=O)N1CCN(C(c2ccc(C#N)cc2)c2cccnc2)CC1` (configuration not stated), the pIC50 in the data set with Trypanosoma cruzi [1] was 6.44; in data set [2], less than 4.00. Further, the 90% effect level in the data set with Trypanosoma cruzi [3] (setting [4]) (IC90) was put at 734 nM.

Take `O=C(c1cccc(C(O)(c2ccc(Cl)cc2)c2cccnc2)c1)N1CCC(O)CC1` (configuration not stated): the negative-log IC50 (pIC50) was 6.93 with Trypanosoma cruzi [1] and less than 4.00 in data set [2]. This compound also displayed an IC90 in the data set with Trypanosoma cruzi [3] (setting [4]) of 732 nM.

As for `Cc1ncsc1C(=O)N1CCN(C(c2cccnc2)c2ccc(Cl)cc2F)CC1` (configuration not stated), the negative logarithm of the IC50 (pIC50) in the data set with Trypanosoma cruzi [1] is 7.44; in data set [2], 4.03. The compound further came in with an IC90 with Trypanosoma cruzi [3] (setting [4]) of 244 nM.

As for `O=C(c1ccccc1)N1CCC(NC(c2cccnc2)c2ccc(Cl)cc2F)CC1` (configuration not stated), the negative logarithm of the IC50 (pIC50) is 7.24 in the data set on Trypanosoma cruzi [1] and 4.15 in data set [2]. In the data set on Trypanosoma cruzi [3] (setting [4]), the 90% effect concentration (IC90) was determined as 248 nM.

For `N#Cc1ccc(C(c2cccnc2)N2CCC(NC(=O)c3ccccc3F)CC2)cc1` (configuration not stated), the pIC50 in the data set on Trypanosoma cruzi [1] was 7.63; in data set [2], less than 4.00. The IC90 with Trypanosoma cruzi [3] (setting [4]) worked out at 402 nM.

`CS(=O)(=O)N1CCC(NC(c2cccnc2)c2ccc(Cl)cc2F)CC1` (configuration not stated): the pIC50 with Trypanosoma cruzi [1] is 6.87; in data set [2], less than 4.00. This compound gave an IC90 in the data set with Trypanosoma cruzi [3] (setting [4]) of 540 nM.

Turning to `N#Cc1ccc(C(c2cccnc2)N2CCC(NC(=O)c3ccc(F)cc3)CC2)cc1` (configuration not stated), the pIC50 was 7.73 with Trypanosoma cruzi [1] and less than 4.00 in data set [2]. In the data set with Trypanosoma cruzi [3] (setting [4]), this compound showed an IC90 of 122 nM.

In the case of `O=C(NC1CCN(C(c2cncnc2)c2ccc(Cl)cc2F)CC1)c1ccc(F)cc1` (configuration not stated), the negative-log IC50 (pIC50) is 7.67 in the data set with Trypanosoma cruzi [1] and 4.22 in data set [2]. In the data set on Trypanosoma cruzi [3] (setting [4]), this compound showed a 90% effect concentration (IC90) of 114 nM.

As for `N#Cc1ccc(C(c2cccnc2)N2CCC(NC(=O)c3ccc(F)cc3C(F)(F)F)CC2)cc1` (configuration not stated), the pIC50 with Trypanosoma cruzi [1] was 8.16; in data set [2] it was 4.11. Moreover, in the data set on Trypanosoma cruzi [3] (setting [4]), the concentration for an effect of 90% (IC90) was found to be 29.6 nM.

Take `Fc1cc(Cl)ccc1C(NC1CCN(c2nccs2)CC1)c1cccnc1` (configuration not stated): the figures for the negative logarithm of the IC50 (pIC50) (in the data set on Trypanosoma cruzi [1]; in data set [2]) were 8.05 and 4.25, respectively. In the data set with Trypanosoma cruzi [3] (setting [4]), this compound registered an IC90 of 65.5 nM.

`OC(c1ccc(Cl)cc1)(c1cccnc1)c1cnc(OCC2CC2)nc1` (configuration not stated): the results for the negative logarithm of the IC50 (pIC50) (in the data set on Trypanosoma cruzi [1]; in data set [2]) were 7.60 and 4.22, respectively. For the same compound, the 90% effect level with Trypanosoma cruzi [3] (setting [4]) (IC90) was put at 332 nM.

Take `Cc1cc(C(=O)NC2CCN(C(c3cncnc3)c3ccc(Cl)cc3F)CC2)[nH]n1` (configuration not stated): the negative logarithm of the IC50 (pIC50) in the data set with Trypanosoma cruzi [1] is 6.76; in data set [2] it was less than 4.00. In the data set on Trypanosoma cruzi [3] (setting [4]), it took 756 nM to reach the 90% level (IC90).

`O=C(NC1CCN(C(c2cncnc2)c2ccc(Cl)cc2F)CC1)c1ccc(F)cc1C(F)(F)F` (configuration not stated): the pIC50 in the data set with Trypanosoma cruzi [1] was 7.96; in data set [2] it was 4.15. The same compound registered an IC90 in the data set on Trypanosoma cruzi [3] (setting [4]) of 82.9 nM.

As for `CC(C)(C)NC(=O)N1CCC(NC(c2cccnc2)c2ccc(Cl)cc2F)CC1` (configuration not stated), the pIC50 is 7.10 in the data set with Trypanosoma cruzi [1] and less than 4.00 in data set [2]. Moreover, in the data set on Trypanosoma cruzi [3] (setting [4]), the IC90 came out at 428 nM.

For `O=C(NC1CCN(C(c2cncnc2)c2ccc(Cl)cc2F)CC1)c1ccc(F)cc1F` (configuration not stated), the values for the pIC50 (with Trypanosoma cruzi [1]; in data set [2]) were 7.82 and 4.09, respectively. This compound registered an IC90 with Trypanosoma cruzi [3] (setting [4]) of 114 nM.

For `O=C(NC1CCN(C(c2cncnc2)c2ccc(Cl)cc2F)CC1)c1c(F)cccc1F` (configuration not stated), the negative logarithm of the IC50 (pIC50) in the data set on Trypanosoma cruzi [1] is 7.81; in data set [2], 4.08. For the same compound, in the data set with Trypanosoma cruzi [3] (setting [4]), the concentration for an effect of 90% (IC90) was found to be 204 nM.

Consider `CS(=O)(=O)N1CCN(C(c2ccc(C(F)(F)F)cc2)c2cccnc2)CC1` (configuration not stated), for which the values for the pIC50 (with Trypanosoma cruzi [1]; in data set [2]) were 7.12 and less than 4.00, respectively. This compound also came in with an IC90 in the data set on Trypanosoma cruzi [3] (setting [4]) of 572 nM.

With `O=C(NC1CCN(C(c2cncnc2)c2ccc(Cl)cc2F)CC1)c1cccc(F)c1F` (configuration not stated), the pIC50 with Trypanosoma cruzi [1] was 7.53; in data set [2] it was 4.12. In the data set with Trypanosoma cruzi [3] (setting [4]), this compound yielded a concentration for an effect of 90% (IC90) of 241 nM.

`N#Cc1ccc(C(c2cccnc2)N(C(=O)C2CC2)C2CCN(C(=O)C3CC3)CC2)cc1` (configuration not stated): the pIC50 with Trypanosoma cruzi [1] was less than 5.00; in data set [2], less than 4.00. The 90% effect concentration (IC90) in the data set on Trypanosoma cruzi [3] (setting [4]) was more than 10000 nM.

As for `O=C(N1CCN(C(c2ccc(C(F)(F)F)cc2)c2cccnc2)CC1)C(F)(F)F` (configuration not stated), the negative logarithm of the IC50 (pIC50) with Trypanosoma cruzi [1] was 6.49; in data set [2], 4.20. This compound registered a concentration for an effect of 90% (IC90) with Trypanosoma cruzi [3] (setting [4]) of 798 nM.

With `O=C(NC1CCN(C(c2cncnc2)c2ccc(Cl)cc2F)CC1)c1cc(F)ccc1F` (configuration not stated), the pIC50 was 7.65 in the data set on Trypanosoma cruzi [1] and 4.13 in data set [2]. The compound further had an IC90 in the data set on Trypanosoma cruzi [3] (setting [4]) of 104 nM.
